The text below walks through data of patent US11149047B2, “Aryl imidazoles for treatment of cancer” (Aptose Biosciences Inc., priority 2017, dated 2021).

The test system of one data set is Raji cells. The data set can be described thus: Cellular pharmacology: intracellular accumulation and efflux by LC-MS/MS. It counts as in vitro ADME, human. On the procedure:
Cells exposed to COMPOUND I or Fe(COMPOUND I)3 were homogenized in acetonitrile containing 5 ng of a deuterated COMPOUND I standard. Samples were analyzed at the UCSD Molecular Mass Spectrometry Facility employing an Agilent 1260 liquid chromatograph (LC) system coupled with a Thermo LCQdeca mass spectrometer using positive ion mode electrospray ionization (ESI) as the ion source. The ESI ion source voltage was set at 5 kV, with sheath gas flow rate of 80 units, auxiliary gas flow rate of 20 units, and capillary temperature of 250° C., respectively. A Phenomenex Kinetex Biphenyl column (ID 2.1 mm×length 50 mm, particle size 2.6 μm) was utilized for LC separation using water with 0.1% formic acid as the mobile phase A and acetonitrile with 0.1% formic acid as the mobile phase B. The LC flow rate was set at 0.30 mL/min. The LC gradient increased from 5% mobile phase B to 95% mobile phase B in 10 minutes, held at 95% B for 2 minutes, returned to 5% B in 1 minute, and then held at 5% B for 6 minutes. […] Selected reaction monitoring (SRM) mode was used to acquire the m/z 353 and m/z 359 fragmental peaks. The SRM peak area ratio (COMPOUND I/COMPOUND I-d6) related to the amount of spiked COMPOUND I-d6 was used for the quantification of COMPOUND I and Fe(COMPOUND I)3 in the samples. The same column, gradient and flow rate were used for detection of Fe(COMPOUND I)3 which was detected using an Agilent 1100 HPLC and Orbitrap XL (Thermo) mass spectrometer employing a Thermo IonMax ESI interface. The Fe(COMPOUND I)3 eluted around 11.5 minutes with these conditions. A 10:1 flow split was used for the eluent flow rate of 0.3 mL/min, so that approximately 0.030 mL/min was introduced into the ESI after the split. […]
For this reason, Raji Burkitt's lymphoma cells were selected for study of the cellular pharmacology of COMPOUND I. The intracellular accumulation of COMPOUND I in the Raji cells was quantified by liquid chromatography tandem mass spectroscopy (LC-MS/MS). […]

For a further data set, the system named is EOL-1. Description: Cytotoxicity study (MTS), 5 days. It counts as cell-based. Conditions: Homo sapiens, EOL1; AML. On the procedure: (§1) EOL-1, GRANTA-519, Jeko-1, Jurkat, Molm-13, NOMO-1, SKM-1, and SU-DHL-6 were obtained from Leibniz-Institut DSMZ. HL-60, KG-1, Mino, MV4-11, Raji, and THP-1 were obtained from ATCC. HEL92.1.7 were obtained from the European Collection of Authenticated Cell Cultures and Ramos cells were a gift from Dr. M. Andreeff (MD Anderson Cancer Center, Houston, Tex.). All cells were cultured in complete media as per the manufacturer's instructions. Early passage cells were collected and frozen within 1 month of receipt from the manufacturer. All experiments were performed on early passage cells within 6 weeks of thawing. MycoScope Mycoplasma Detection Kit (Genlantis catalog #MY01050) was used to screen for potential contamination every 6 months. Peripheral blood mononuclear cells (PBMC) were isolated from fresh healthy donor blood using Ficoll-Paque PLUS (GE Healthcare, catalog #17-1440-02). For synthesis of COMPOUND I free base, 10-phenanthroline-5,6-dione (1.2 equivalents), acetic acid (22 volumes), 2-methyl-5-fluoroindole-3-carboxaldehyde (1.0 equivalents), and ammonium acetate (15 equivalents) were reacted under medium agitation while heated at 95±5° C. for 3 to 7 hours. The reaction was cooled to between 20° C. and 25° C., filtered, rinsed with acetic acid and ethanol, and dried with N2 purge, followed by a wash with 2:1 ethanol:water at 65° C. for 4 hours, cooling to 20° C. to 25° C., filtration, rinsing with 2:1 ethanol:water and EtOAc, and then dried with N2 purge. The purity by HPLC was 99.5%, and the structural identity was confirmed by FT-IR, ^1HNMR, ^13C NMR, and LC/MS. For Fe(COMPOUND I)3 synthesis, five molar equivalents of ferrous ion FeSO4 in water was added to COMPOUND I dissolved in ethanol. The deep red precipitate produced, Fe(COMPOUND I)3, was collected and dissolved in DMSO and characterized by HPLC and mass spectrometry as >95% pure. CX-5461 (7) was purchased from MedChem Express (catalog #HY-13323).
(§2) Cells were plated and treated with vehicle DMSO or COMPOUND I (10 concentrations) in 96-well plates for 5 days at 37° C. and 5% CO2. Cell viability was measured using CellTiter 96 AQueous one solution (MTS) cell proliferation assay (Promega, catalog #G3581), and IC50 values were calculated using GraphPad Prism 7 software.

Another data set concerns HEL92.1.7. The data set can be described thus: Cytotoxicity study (MTS), 5 days. The data set is classed as cell-based. Conditions: Homo sapiens, HEL 92.1.7; AML. The method, then: as §1, §2
Another data set concerns HL-60. The data set can be described thus: Cytotoxicity study (MTS), 5 days. Conditions: Homo sapiens, AML. It counts as cell-based. The method, then: as §1, §2
For another data set, the system named is Jeko-1. The data set can be described thus: Cytotoxicity study (MTS), 5 days. The data set is classed as cell-based. As to conditions: Homo sapiens, MCL. On the procedure: as §1, §2
The next data set relates to KG-1. The data set can be described thus: Cytotoxicity study (MTS), 5 days. It counts as cell-based. As to conditions: Homo sapiens, AML. The method, then:
as §1, §2

The next data set concerns MOLM-13. The data set can be described thus: Cytotoxicity study (MTS), 5 days. The data set is classed as cell-based. As to conditions: Homo sapiens, AML. The method, then:
as §1, §2

A further data set deals with Mino. Description: Cytotoxicity study (MTS), 5 days. It counts as cell-based. Conditions: Homo sapiens, MCL. The method, then:
as §1, §2

A further data set has as its system Nomo-1. The data set can be described thus: Cytotoxicity study (MTS), 5 days. It counts as cell-based. As to conditions: Homo sapiens, AML. The method, then:
as §1, §2

The test system of a further data set is Raji. Description: Cytotoxicity study (MTS), 5 days. It counts as cell-based. As to conditions: Homo sapiens, Burkitt's. The method, then:
as §1, §2

The test system of the next data set is Ramos. The data set can be described thus: Cytotoxicity study (MTS), 5 days. Conditions: Homo sapiens, Burkitt's. It counts as cell-based. On the procedure:
as §1, §2

In the next data set the test system is SKM-1. Description: Cytotoxicity study (MTS), 5 days. Conditions: Homo sapiens, AML. It counts as cell-based. On the procedure:
as §1, §2

For another data set, the system named is SUDHL-6. The data set can be described thus: Cytotoxicity study (MTS), 5 days. As to conditions: Homo sapiens, SU-DHL-6; DLBCL. The data set is classed as cell-based. The method, then:
as §1, §2

The subject of a further data set is THP1. The data set can be described thus: Cytotoxicity study (MTS), 5 days. It counts as cell-based. As to conditions: Homo sapiens, THP-1; AML. The method, then: as §1, §2

As usually defined, the IC50 is the concentration that inhibits the measured activity by half. Turning to `Cc1[nH]c2ccc(F)cc2c1-c1nc2c3cccnc3c3ncccc3c2[nH]1` [COMPOUND I, 2-(5-fluoro-2-methyl-1H-indol-3-yl)-1H-imidazo[4,5-f][1,10]phenanthroline], the “time at which cellular content approaches steady-state” value in the data set with Raji cells (Raji cells, FIG. 6A) is on record as about 6 h. The “Rate of efflux over first 2 hours” value with Raji cells (Raji cells, mean ± SEM, n = 6) is given as −0.19 ± 0.025 log fmole/10^7 cells/h. For the same compound, the “intracellular Zn chelate” value in the data set on Raji cells (cells exposed to COMPOUND I) is “a Zn chelate was not detectable”. For the same compound, the IC50 came out at 0.3 µM in the data set with EOL-1; 1.75 µM in the data set with HEL92.1.7; 0.46 µM in the data set on HL-60; 0.057 µM in the data set on Jeko-1; 0.51 µM in the data set with KG-1; 0.14 µM in the data set with MOLM-13. Moreover, the half-maximal inhibitory concentration (IC50) was 0.23 µM in the data set on Mino; 1.45 µM in the data set on Nomo-1; 0.1 µM in the data set with Raji; 0.35 µM in the data set with Ramos; 0.48 µM with SKM-1; 0.51 µM in the data set with SUDHL-6. 0.34 µM corresponded to half-maximal inhibition in the data set on THP1 (IC50).
